Results from US20110105435A1, “THERAPY OPTION FOR RECOLORATION OF HAIR VIA BISPHOSPHONATES BY PHYSIOLOGICAL REPIGMENTATION WITH AGE-RELATED AND/OR PREMATURE "GRAYED" PATIENTS” (priority 2007, published 2011).

Tested on: scalp hair
Experiment: Case observation: scalp hair recoloration in a myeloma patient on zoledronate monotherapy
Type: in vivo, human
Settings: Zometa 4 mg i.v. once monthly
Method: […] Multiple myeloma is a non-Hodgkin lymphoma and represents one of the most frequent malignant bone diseases.
Multiple myeloma in Stage I according to Durie and Salmon without osteolytic activity was diagnosed in the patient in November 2006. Since Stage I myeloma without clinically relevant symptoms are generally not aggressively treated with cytotostatic substances, the patient was included in an experimental monotherapy scheme applying Zometa® (active ingriedient: zoledronate), 4 mg i.v. in calcium-free infusion solution on a once monthly basis.
Zoledronate treatment is pursued for 6 months with a total of 6 therapy cycles until progression of myeloma (proliferation of plasma cell population in the bone marrow) made a more aggressive therapy approach necessary.
A suprising side-effect was observed:
The patient reported that they were black-haired during their teens and twens.
Since zoledronate was applied in monotherapy and no other relevant measures were deployed, the surprising change in hair coloration in the respective patient was caused by the bisphosphonate therapy of the underlying myeloma disease.

## O=P(O)(O)C(O)(Cn1ccnc1)P(=O)(O)O [zoledronate]
Stage I multiple myeloma patient, completely white-haired at therapy induction, 6 cycles, monotherapy
  change in hair coloration (repigmentation of white scalp hair): increasingly developed black scalp hair
Myeloma patient
  duration of treatment until white appearance switched to natural-looking dark-greyish shape: 3-4 months
